# Test results reported in patent US20020001582A1, “Methods and compositions for inhibiting microbial growth” (priority 1999, published 2002).
# Test system: Fusarium
# Experiment: Lysozyme against Fusarium, plug in PD broth
# Type: cell-based
# Protocol: PD broth was prepared and autoclaved in dilution bottles (100 ml) and allowed to cool. Required amounts of lysozyme were added into the bottles and dissolved. […] A square of Fusarium (5-10 mm square “plug”) was cut and placed in/near the center of each dish. The plates were incubated at room temperature for 2 weeks. The trial was carried out in triplicate and was repeated three times.
# The fungal growth was quantified by measuring the diameter of Fusarium growth and the coverage of the plates by the fungus. The measurements (given in mm) also include the size of the inoculum plug inserted into the plate of media. The color change and the change in the physical appearance (fuzzy, not fuzzy) were also monitored. The Fusarium growth is pink to dark pink. All the numbers shown are the averages of three replicates for each treatment. The diameter of the plate was approximately 85 mm.
substance,measurement,setting,value
"lysozyme: type c egg white lysozyme, enzyme of approximately 129 amino acids; commercially available from Canadian Inovatech, Inc.",Fusarium growth,"250 ppm, broth turned yellow after 10 days",quite limited
same,diameter of Fusarium growth,"Batch 1, 25 ppm, day 0 (inoculum plug)",9.3 mm
same,"growth, color and physical appearance","Batch 1, 25 ppm, day 4","Confluent, pink"
same,"growth, color and physical appearance","Batch 1, 25 ppm, day 7","Confluent, dark"
same,"growth, color and physical appearance","Batch 1, 25 ppm, day 11","Confluent, dark"
same,diameter of Fusarium growth,"Batch 1, 50 ppm, day 0 (inoculum plug)",9.7 mm
same,"growth, color and physical appearance","Batch 1, 50 ppm, day 4","Confluent, pink"
same,"growth, color and physical appearance","Batch 1, 50 ppm, day 7","Confluent, dark"
same,"growth, color and physical appearance","Batch 1, 50 ppm, day 11","Confluent, dark"
same,diameter of Fusarium growth,"Batch 1, 75 ppm, day 0 (inoculum plug)",8.3 mm
same,coverage of the plates by the fungus,"Batch 1, 75 ppm, day 4",36.7% covered
same,diameter of Fusarium growth,"Batch 1, 75 ppm, day 4",23.7 mm
same,coverage of the plates by the fungus,"Batch 1, 75 ppm, day 7",60% covered
same,diameter of Fusarium growth,"Batch 1, 75 ppm, day 7",27.0 mm
same,"growth, color and physical appearance","Batch 1, 75 ppm, day 11","Confluent, dark"
same,diameter of Fusarium growth,"Batch 1, 100 ppm, day 0 (inoculum plug)",8.0 mm
same,coverage of the plates by the fungus,"Batch 1, 100 ppm, day 4",26.7% covered
same,diameter of Fusarium growth,"Batch 1, 100 ppm, day 4",23.7 mm
same,coverage of the plates by the fungus,"Batch 1, 100 ppm, day 7",46.7% covered
same,diameter of Fusarium growth,"Batch 1, 100 ppm, day 7",28.3 mm
same,coverage of the plates by the fungus,"Batch 1, 100 ppm, day 11",80% covered
same,"growth, color and physical appearance","Batch 1, 100 ppm, day 11",Dark pink
same,diameter of Fusarium growth,"Batch 1, 250 ppm, day 0 (inoculum plug)",8.7 mm
same,diameter of Fusarium growth,"Batch 1, 250 ppm, day 4",16.0 mm
same,diameter of Fusarium growth,"Batch 1, 250 ppm, day 7",22.0 mm
same,coverage of the plates by the fungus,"Batch 1, 250 ppm, day 11",29.7% covered
same,"growth, color and physical appearance","Batch 1, 250 ppm, day 11",Yellow broth
same,diameter of Fusarium growth,"Batch 2, 25 ppm, day 0 (inoculum plug)",7.8 mm
same,coverage of the plates by the fungus,"Batch 2, 25 ppm, day 4",76.7%
same,"growth, color and physical appearance","Batch 2, 25 ppm, day 4",dark peach
same,coverage of the plates by the fungus,"Batch 2, 25 ppm, day 6",88.3%
same,"growth, color and physical appearance","Batch 2, 25 ppm, day 6",pink
same,coverage of the plates by the fungus,"Batch 2, 25 ppm, day 8",91.7%
same,"growth, color and physical appearance","Batch 2, 25 ppm, day 8",dark pink
same,coverage of the plates by the fungus,"Batch 2, 25 ppm, day 11",91.7%
same,"growth, color and physical appearance","Batch 2, 25 ppm, day 11",dark pink
same,coverage of the plates by the fungus,"Batch 2, 25 ppm, day 14",91.7%
same,"growth, color and physical appearance","Batch 2, 25 ppm, day 14","dark pink,"
same,diameter of Fusarium growth,"Batch 2, 50 ppm, day 0 (inoculum plug)",7.5 mm
same,coverage of the plates by the fungus,"Batch 2, 50 ppm, day 4",43.3%
same,"growth, color and physical appearance","Batch 2, 50 ppm, day 4",peach
same,coverage of the plates by the fungus,"Batch 2, 50 ppm, day 6",60%
same,"growth, color and physical appearance","Batch 2, 50 ppm, day 6",pink
same,coverage of the plates by the fungus,"Batch 2, 50 ppm, day 8",61.7%
same,"growth, color and physical appearance","Batch 2, 50 ppm, day 8",dark pink
same,coverage of the plates by the fungus,"Batch 2, 50 ppm, day 11",68.3%
same,"growth, color and physical appearance","Batch 2, 50 ppm, day 11",dark pink
same,coverage of the plates by the fungus,"Batch 2, 50 ppm, day 14",55.0%
same,"growth, color and physical appearance","Batch 2, 50 ppm, day 14","dark pink,"
same,diameter of Fusarium growth,"Batch 2, 75 ppm, day 0 (inoculum plug)",8.0 mm
same,coverage of the plates by the fungus,"Batch 2, 75 ppm, day 4",13.3%
same,diameter of Fusarium growth,"Batch 2, 75 ppm, day 4",21.3 mm
same,"growth, color and physical appearance","Batch 2, 75 ppm, day 4",peach
same,coverage of the plates by the fungus,"Batch 2, 75 ppm, day 6",40%
same,"growth, color and physical appearance","Batch 2, 75 ppm, day 6",pink
same,coverage of the plates by the fungus,"Batch 2, 75 ppm, day 8",46.7%
same,"growth, color and physical appearance","Batch 2, 75 ppm, day 8",pink
same,coverage of the plates by the fungus,"Batch 2, 75 ppm, day 11",61.7%
same,"growth, color and physical appearance","Batch 2, 75 ppm, day 11",dark pink
same,coverage of the plates by the fungus,"Batch 2, 75 ppm, day 14",68.3%
same,"growth, color and physical appearance","Batch 2, 75 ppm, day 14","dark pink,"
same,diameter of Fusarium growth,"Batch 2, 100 ppm, day 0 (inoculum plug)",7.8 mm
same,diameter of Fusarium growth,"Batch 2, 100 ppm, day 4",22.3 mm
same,"growth, color and physical appearance","Batch 2, 100 ppm, day 4",peach
same,diameter of Fusarium growth,"Batch 2, 100 ppm, day 6",20.0 mm
same,"growth, color and physical appearance","Batch 2, 100 ppm, day 6",light peach
same,coverage of the plates by the fungus,"Batch 2, 100 ppm, day 8",30.3%
same,"growth, color and physical appearance","Batch 2, 100 ppm, day 8",pink
same,diameter of Fusarium growth,"Batch 2, 100 ppm, day 11",37 mm
same,"growth, color and physical appearance","Batch 2, 100 ppm, day 11",pink/yellow
same,diameter of Fusarium growth,"Batch 2, 100 ppm, day 14",42.7 mm
same,"growth, color and physical appearance","Batch 2, 100 ppm, day 14","pink, fuzzy"
same,diameter of Fusarium growth,"Batch 2, 250 ppm, day 0 (inoculum plug)",7.3 mm
same,diameter of Fusarium growth,"Batch 2, 250 ppm, day 4",17.0 mm
same,"growth, color and physical appearance","Batch 2, 250 ppm, day 4",light peach
same,diameter of Fusarium growth,"Batch 2, 250 ppm, day 6",19.7 mm
same,"growth, color and physical appearance","Batch 2, 250 ppm, day 6",very light
same,diameter of Fusarium growth,"Batch 2, 250 ppm, day 8",22 mm
same,"growth, color and physical appearance","Batch 2, 250 ppm, day 8",dark peach
same,diameter of Fusarium growth,"Batch 2, 250 ppm, day 11",25.7 mm
same,"growth, color and physical appearance","Batch 2, 250 ppm, day 11",yellow broth
same,diameter of Fusarium growth,"Batch 2, 250 ppm, day 14",35.0 mm
same,"growth, color and physical appearance","Batch 2, 250 ppm, day 14","pink, fuzzy"
same,diameter of Fusarium growth,"Batch 3, 25 ppm, day 0 (inoculum plug)",8.2 mm
same,coverage of the plates by the fungus,"Batch 3, 25 ppm, day 4",25% covered
same,diameter of Fusarium growth,"Batch 3, 25 ppm, day 4",26.3 mm
same,"growth, color and physical appearance","Batch 3, 25 ppm, day 4",peach
same,coverage of the plates by the fungus,"Batch 3, 25 ppm, day 7",33.3% covered
same,diameter of Fusarium growth,"Batch 3, 25 ppm, day 7",24.7 mm
same,"growth, color and physical appearance","Batch 3, 25 ppm, day 7","pink, fuzzy"
same,coverage of the plates by the fungus,"Batch 3, 25 ppm, day 11",38.3%
same,diameter of Fusarium growth,"Batch 3, 25 ppm, day 11",31.3 mm
same,"growth, color and physical appearance","Batch 3, 25 ppm, day 11","pink, fuzzy"
same,coverage of the plates by the fungus,"Batch 3, 25 ppm, day 14","45.0% covered,"
same,diameter of Fusarium growth,"Batch 3, 25 ppm, day 14",32.0 mm
same,"growth, color and physical appearance","Batch 3, 25 ppm, day 14","pink, fuzzy"
same,diameter of Fusarium growth,"Batch 3, 50 ppm, day 0 (inoculum plug)",7.5 mm
same,coverage of the plates by the fungus,"Batch 3, 50 ppm, day 4",28.3% covered
same,diameter of Fusarium growth,"Batch 3, 50 ppm, day 4",22.7 mm
same,"growth, color and physical appearance","Batch 3, 50 ppm, day 4",peach
same,coverage of the plates by the fungus,"Batch 3, 50 ppm, day 7",41.7% covered
same,diameter of Fusarium growth,"Batch 3, 50 ppm, day 7",25.7 mm
same,"growth, color and physical appearance","Batch 3, 50 ppm, day 7","pink, fuzzy"
same,coverage of the plates by the fungus,"Batch 3, 50 ppm, day 11",41.7%
same,diameter of Fusarium growth,"Batch 3, 50 ppm, day 11",28.0 mm
same,"growth, color and physical appearance","Batch 3, 50 ppm, day 11","pink, fuzzy"
same,coverage of the plates by the fungus,"Batch 3, 50 ppm, day 14","48.3% covered,"
same,diameter of Fusarium growth,"Batch 3, 50 ppm, day 14",29.3 mm
same,"growth, color and physical appearance","Batch 3, 50 ppm, day 14","pink, fuzzy"
same,diameter of Fusarium growth,"Batch 3, 75 ppm, day 0 (inoculum plug)",8.2 mm
same,diameter of Fusarium growth,"Batch 3, 75 ppm, day 4",25.2 mm
same,"growth, color and physical appearance","Batch 3, 75 ppm, day 4",peach
same,diameter of Fusarium growth,"Batch 3, 75 ppm, day 7",32.7 mm
same,"growth, color and physical appearance","Batch 3, 75 ppm, day 7","pink, fuzzy"
same,diameter of Fusarium growth,"Batch 3, 75 ppm, day 11",41.0 mm
same,"growth, color and physical appearance","Batch 3, 75 ppm, day 11","pink, fuzzy"
same,coverage of the plates by the fungus,"Batch 3, 75 ppm, day 14","38.1% covered,"
same,diameter of Fusarium growth,"Batch 3, 75 ppm, day 14",43.7 mm
same,"growth, color and physical appearance","Batch 3, 75 ppm, day 14","pink, fuzzy"
same,diameter of Fusarium growth,"Batch 3, 100 ppm, day 0 (inoculum plug)",8.7 mm
same,diameter of Fusarium growth,"Batch 3, 100 ppm, day 4",21.7 mm
same,"growth, color and physical appearance","Batch 3, 100 ppm, day 4",peach
same,diameter of Fusarium growth,"Batch 3, 100 ppm, day 7",25.0 mm
same,"growth, color and physical appearance","Batch 3, 100 ppm, day 7","pink, fuzzy"
same,diameter of Fusarium growth,"Batch 3, 100 ppm, day 11",26.0 mm
same,"growth, color and physical appearance","Batch 3, 100 ppm, day 11","pink, fuzzy"
same,coverage of the plates by the fungus,"Batch 3, 100 ppm, day 14","34.9% covered,"
same,diameter of Fusarium growth,"Batch 3, 100 ppm, day 14",26.7 mm
same,"growth, color and physical appearance","Batch 3, 100 ppm, day 14","pink, fuzzy"
same,diameter of Fusarium growth,"Batch 3, 250 ppm, day 0 (inoculum plug)",7.3 mm
same,diameter of Fusarium growth,"Batch 3, 250 ppm, day 4",12.2 mm
same,"growth, color and physical appearance","Batch 3, 250 ppm, day 4",yellow
same,diameter of Fusarium growth,"Batch 3, 250 ppm, day 7",20 mm
same,"growth, color and physical appearance","Batch 3, 250 ppm, day 7","peach, fuzzy"
same,diameter of Fusarium growth,"Batch 3, 250 ppm, day 11",29.7 mm
same,diameter of Fusarium growth,"Batch 3, 250 ppm, day 14",38.7 mm
same,"growth, color and physical appearance","Batch 3, 250 ppm, day 14",peach with yellow
same,inhibition of Fusarium,"concentrations lower than 250 ppm, not as effective",some inhibition
